Test results published in patent publication US11548939B2, “Therapeutic combinations using IGF1R pathway inhibitors, and methods to predict anti-IGF1R therapeutic efficacy” (UNIVERSITY OF PITTSBURGH-OF THE COMMONWEALTH SYSTEM OF …, priority 2018, dated 2023).

Experiments:
MCF-7 cells = assay: Dose response growth assay (CellTiter Glo) in cells transfected with SCR or CDH1 siRNA; assay type: cell-based; details: 6 days
Excerpt: The CellTiter Glo assay was used to assess cell viability (relative luminescence).
CellTiter Glo assay was used to assess cell viability (relative luminescence).

MM134 xenograft tumor = assay: ILC xenograft tumor ex vivo explant culture, Ki67 staining; assay type: cell-based, human; details: 1 μM, 72 hours, vehicle 47%, p=0.002
Description: (§1) FIGS. 12A, 12B, 12C, 12D, 12E and 12F show IGF1R inhibition reduces Ki67 staining in ILC tumor ex vivo culture. MM134 (FIGS. 12A, 12B, and 12C) and BCK4 (FIGS. 12D, 12E, and 12F) xenograft tumors were harvested from immunocompromised mice, minced into 1-2 mm^3 tumor chunks and then plated on gelatin sponges in 12-well plate containing 1.5 mL media. Media was treated with DMSO Vhc (FIGS. 12A and 12D) or 1 μM […] (FIGS. 12B and 12E) for 72 hours. Tumor pieces were harvested by FFPE and stained for Ki67 as a marker of proliferation. Staining was quantified for MM134 (FIG. 12C) and BCK4 (FIG. 12F) cells by counting all clearly defined nuclei in 20× images. Statistical difference was assessed using a Student's t-test (p<0.05; n=3-6). […] Nuclei were quantified by counting all clearly defined nuclei within each tissue section (n=3-6). […]

BCK4 xenograft tumor = assay: as above; assay type: cell-based; details: 1 μM, 72 hours, vehicle 25%, p=0.005
Description: as §1

SUM44PE ILC cells = assay: Synergy measurement (Chou-Talalay combination index), CellTiter Glo viability, 96-well ULA plates, 6 days; details: for CI: ED75 / CI: ED90: SUM44PE, drug in combination with ICI 182,780, mean ± SEM, 3 independent experiments
Description: SUM44PE ILC cells were plated into 96-well ULA plates and treated for 6 days with increasing doses of OSI-906 (FIG. 10A, 10B), BMS-754807 (FIG. 10C, 10D), or BEZ235 (FIG. 10E, 10F) in combination with increasing doses of ICI 182,780. The dose response curves (FIG. 10A, 10C, 10E) and heat maps (FIG. 10B, 10D, 10F) shown indicate inhibition of cell viability (CellTiter Glo).
For synergy experiments, SUM44PE and MDA-MB-134 cells were plated in 96-well ULA plates (18,000 cells/well) in 100 μl of media/well. […] Synergy was calculated using the Median-Effect Principle and Combination Index-Isobologram Theorem (Chou-Talalay)^27. Combination index values for ED50, ED75, ED90 are shown as a mean±SEM from n=3 independent experiments.
Synergy was measured using the Median-Effect Principle and Combination-Index Isoblogram Theorem. […] Values are shown +/−SEM from 3 independent experiments each with n=2 biological replicates. CI values <1 indicate a synergistic drug interaction.

[1] = tested on: MDA-MB-134 (MM134) ILC cells; assay: as above; details: for CI: ED75 / CI: ED90: MM134, drug in combination with ICI 182,780, mean ± SEM, 3 independent experiments
Description: MDA-MB-134 ILC cells were plated into 96-well ULA plates and treated for 6 days with increasing doses of OSI-906 (FIG. 11A, 11B), BMS-754807 (FIGS. 11C, 11D), or BEZ235 (FIGS. 11E, 11F) in combination with increasing doses of ICI 182,780. The dose response curves (FIGS. 11A, 11C, 11E) and heat maps (FIGS. 11B, 11D, 11F) shown indicate inhibition of cell viability (CellTiter Glo). Representative experiment shown; n=3 each with 2 biological replicates per combination of doses.
Plates (2D and ultra-low attachment [ULA; Corning #3474]) were collected on day 6 and viability was measured using CellTiter Glo Viability assay (Promega #G7572). […] For synergy experiments, SUM44PE and MDA-MB-134 cells were plated in 96-well ULA plates (18,000 cells/well) in 100 μl of media/well. […] Synergy was calculated using the Median-Effect Principle and Combination Index-Isobologram Theorem (Chou-Talalay)^27. Combination index values for ED50, ED75, ED90 are shown as a mean±SEM from n=3 independent experiments.
Synergy was measured using the Median-Effect Principle and Combination-Index Isoblogram Theorem. […] Values are shown +/−SEM from 3 independent experiments each with n=2 biological replicates.

ZR75.1 cells = assay: Dose response growth assay (CellTiter Glo) in cells transfected with SCR or CDH1 siRNA; assay type: cell-based; details: 6 days
Excerpt: FIGS. 5A and 5B show knockdown of E-cadherin increases sensitivity to IGF1R inhibition in breast cancer cells. ZR75.1 cells were reverse transfected with SCR or CDH1 siRNA and seeded into 96-well 2D (FIG. 5A) or ULA (FIG. 5B) plates and treated with OSI-906 for 6 days. CellTiter Glo assay was used to assess cell viability (relative luminescence).

In the case of C[C@@]1(C(=O)Nc2ccc(F)nc2)CCCN1c1nc(Nc2cc(C3CC3)[nH]n2)c2cccn2n1 [BMS-754807, (2S)-1-[4-[(5-Cyclopropyl-1H-pyrazol-3-yl)amino]pyrrolo[2,1-f][1,2,4]triazin-2-yl]-N-(6-fluoro-3-pyridinyl)-2-methyl-2-Pyrrolidinecarboxamide], the “viability of siCDH1 cells compared to siSCR cells in response to treatment” value (MCF-7 cells; 2D growth condition) is reported as “no significant difference”, the “viability of siCDH1 cells compared to siSCR cells in response to treatment” value (MCF-7 cells; ULA growth condition) is reported as “decreased viability” and the Ki67 positive nuclei (MM134 xenograft tumor) is reported as 22%. For the same molecule, the Ki67 positive nuclei (BCK4 xenograft tumor) was 11%, the “CI: ED75” value (SUM44PE ILC cells) was 0.081 ± 0.04 and the “CI: ED90” value (SUM44PE ILC cells) was 0.099 ± 0.04. For the same molecule, the “CI: ED75” value (SUM44PE ILC cells; listed as BMS) was 0.081, the “CI: ED90” value (SUM44PE ILC cells; listed as BMS) was 0.099 and the “CI: ED75” value [1] was 0.230 ± 0.04. The “CI: ED90” value [1] was 0.667 ± 0.15.

For C[C@]1(O)C[C@@H](c2nc(-c3ccc4ccc(-c5ccccc5)nc4c3)c3c(N)nccn32)C1 [OSI-906, cis-3-[8-amino-1-(2-phenyl-7-quinolinyl)imidazo[1,5-a]pyrazin-3-yl]-1-methyl-cyclobutanol], the “viability of siCDH1 cells compared to siSCR cells in response to treatment” value (MCF-7 cells; 2D growth condition) was “significantly decreased viability”, the “viability of siCDH1 cells compared to siSCR cells in response to treatment” value (MCF-7 cells; ULA growth condition) was “significantly decreased viability” and the “viability of siCDH1 cells compared to siSCR cells in response to treatment” value (ZR75.1 cells; 2D growth condition) was “not in the 2D growth condition”. For the same molecule, the “viability of siCDH1 cells compared to siSCR cells in response to treatment” value (ZR75.1 cells; ULA growth condition) was “significantly decreased viability”, the “CI: ED75” value (SUM44PE ILC cells) was 0.250 ± 0.10 and the “CI: ED90” value (SUM44PE ILC cells) was 0.398 ± 0.22. The “CI: ED75” value [1] was 0.449 ± 0.18 and the “CI: ED90” value [1] was 0.808 ± 0.48.

With C[C@]12CC[C@@H]3c4ccc(O)cc4C[C@@H](CCCCCCCCC[S+]([O-])CCCC(F)(F)C(F)(F)F)[C@H]3[C@@H]1CC[C@@H]2O (stereo partly drawn) [ICI 182,780, 7α,17β-[9-[(4,4,5,5,5-Pentafluoropentyl)sulfinyl]nonyl]estra-1,3,5(10)-triene-3,17-diol] the “difference in EC50 between siSCR and siCDH1 cells” value (MCF-7 cells; 2D and ULA (FIG. 6)) was “no statistical difference in EC50”, the “minimum dose reduction index (DRI) for ICI” value (SUM44PE ILC cells; SUM44PE cells, all drug combinations (OSI, BMS, BEZ), at the EC50) was at least 8 fold and the “minimum dose reduction index (DRI) for ICI” value ([1]; MM134 cells, all drug combinations (OSI, BMS, BEZ), at the EC50) was at least 2 fold.

Cn1c(=O)n(-c2ccc(C(C)(C)C#N)cc2)c2c3cc(-c4cnc5ccccc5c4)ccc3ncc21 [BEZ235, 4-[2,3-dihydro-3-methyl-2-oxo-8-(3-quinolinyl)-1H-imidazo[4,5-c]quinolin-1-yl]-α,α-dimethyl-benzeneacetonitrile] was tested, and the “CI: ED75” value (SUM44PE ILC cells) was 0.401 ± 0.12, the “CI: ED90” value (SUM44PE ILC cells) was 0.425 ± 0.12 and the “CI: ED75” value [1] was 0.547 ± 0.13. The “CI: ED90” value [1] was 2.885 ± 1.34.
